For data set [1] the following is noted: rat, in vivo.
Method: (§1) c) Intranasal absorption of peptides (FAD)in
(§2) Absorption of peptides administered in a volume of 30 μl in the nasal cavity through a PE20 cannula attached to a Hamilton syringe (introduced 10 mm without surgery), was determined by comparing the antidiuretic effect (area under curve) after intranasal administration with the antidiuretic effect after intravenous administration.
For data set [2] the following is noted: in vivo; cited from earlier work.
The subject of data set [3] is rat. In words: Antidiuretic activity (ADiv), rat model, urine conductivity after intravenous challenge. The format is in vivo. Conditions: conductivity of urine. As for the experimental part:
a) Antidiuretic activity (ADiv)
The antidiuretic activity of the peptides was determined in the well established rat model which is based on continuous measurement of the conductivity of the urine produced by the rat after an intravenous challenge with peptide (J. Medicinal Chem. (1978), 21, 352-356).

The conditions of data set [4]: rat, in vivo. The source holds these as a separate data set.
Method: (§3) b) Gastrointestinal absorption of peptides [(FAD)V ]
(§4) Absorption of peptides administered in the intestine through a surgically introduced plastic tube (10 cm distal of pylorus) was determined by comparing the antidiuretic effect (area under curve) after intestinal administration with the antidiuretic effect after intravenous adminstration.
Data set [5] is described as follows: Intranasal absorption of peptides (FAD)in, intranasal vs intravenous antidiuretic effect. The conditions noted are these: rat, 30 μl in nasal cavity; antidiuretic effect AUC vs intravenous.
Method: as §1, §2
Data set [6] can be described thus: Gastrointestinal absorption of peptides (FAD)V, intestinal vs intravenous antidiuretic effect. Conditions: rat, intestinal administration via tube 10 cm distal of pylorus; antidiuretic effect AUC vs intravenous.
Method: as §3, §4

Like-named read-outs stand apart in the source and are kept apart here. Numbered stars: 1 amine (or outer) side, 2 acyl side, 3 side chain; on linkers, the order of the positions; unused ones are H or OH. Bridge positions count the residues as written; N and C are the ends. Square brackets hold non-standard residues; d marks the D form. Peptide text beside a SMILES is read from it. Hyp = O=C(O)[C@@H]1C[C@@H](O)CN1; 2Thi = N[C@@H](Cc1cccs1)C(=O)O; d2Thi = N[C@H](Cc1cccs1)C(=O)O; Iva = CC[C@](C)(N)C(=O)O; X1 = O=C(CCC[*:2])[*:1]

Take `NC(=O)CC[C@@H]1NC(=O)[C@H](Cc2ccccc2)NC(=O)[C@H](Cc2ccc(O)cc2)NC(=O)CCSSC[C@@H](C(=O)N2CCC[C@H]2C(=O)N[C@H](CCCN=C(N)N)C(=O)NCC(N)=O)NC(=O)[C@H](CC(N)=O)NC1=O` [DDAVP, 1-desamino-8-D-arginine vasopressin]: the “(FAD)in (intranasal absorption)” value in data set [1] was 8%. Also, the “decrease of bioavailability by intranasal route” value in data set [2] was “about 10 times”. Besides, in data set [3], the “ADiv (antidiuretic activity)” value was 1100 IU/μmol. In addition, the “(FAD)V (gastrointestinal absorption)” value in data set [4] is on record as 0.09%.
For the compound `CC[C@]1(C)NC(=O)[C@H](Cc2cccs2)NC(=O)[C@@H](Cc2ccccc2)NC(=O)CCCSC[C@@H](C(=O)N2C[C@H](O)C[C@H]2C(=O)N[C@H](CCCNC(=N)N)C(=O)NCC(N)=O)NC(=O)[C@H](CC(N)=O)NC1=O` [Ex. 1] ([dF][2Thi][Iva]NC[Hyp][dR]G-NH2; linker N-5 via X1), the “(FAD)in (intranasal absorption)” value in data set [5] is 42%. The “(FAD)V (gastrointestinal absorption)” value in data set [6] came out at 1.3%.
For the compound `CC(C)[C@@H]1NC(=O)[C@H](Cc2cccs2)NC(=O)[C@@H](Cc2ccccc2)NC(=O)CCCSC[C@@H](C(=O)N2C[C@H](O)C[C@H]2C(=O)N[C@H](CCCNC(=N)N)C(=O)NCC(N)=O)NC(=O)[C@H](CC(N)=O)NC1=O` [Ex. 2] ([dF][2Thi]VNC[Hyp][dR]G-NH2; linker N-5 via X1), in data set [5], the “(FAD)in (intranasal absorption)” value was 20%. Further, the “(FAD)V (gastrointestinal absorption)” value in data set [6] stood at 1.2%.
Turning to `CC(C)[C@@H]1NC(=O)[C@H](Cc2ccccc2)NC(=O)[C@@H](Cc2ccc(O)cc2)NC(=O)CCCSC[C@@H](C(=O)N2CCC[C@H]2C(=O)N[C@H](CCCNC(=N)N)C(=O)NCC(N)=O)NC(=O)[C@H](CC(N)=O)NC1=O` [Ex. 3, reference compound] ([dY]FVNCP[dR]G-NH2; linker N-5 via X1), the “(FAD)in (intranasal absorption)” value in data set [5] came out at 5%. In addition, in data set [6], the “(FAD)V (gastrointestinal absorption)” value is 0.4%.
Regarding `CC[C@]1(C)NC(=O)[C@H](Cc2cccs2)NC(=O)[C@@H](Cc2cccs2)NC(=O)CCCSC[C@@H](C(=O)N2C[C@H](O)C[C@H]2C(=O)N[C@H](CCCNC(=N)N)C(=O)NCC(N)=O)NC(=O)[C@H](CC(N)=O)NC1=O` [Ex. 4] ([d2Thi][2Thi][Iva]NC[Hyp][dR]G-NH2; linker N-5 via X1), the “(FAD)in (intranasal absorption)” value in data set [5] was 22%. Also, the “(FAD)V (gastrointestinal absorption)” value in data set [6] stood at 2.5%.
With `CC[C@]1(C)NC(=O)[C@H](Cc2cccs2)NC(=O)[C@@H](Cc2ccc(O)cc2)NC(=O)CCCSC[C@@H](C(=O)N2C[C@H](O)C[C@H]2C(=O)N[C@H](CCCNC(=N)N)C(=O)NCC(N)=O)NC(=O)[C@H](CC(N)=O)NC1=O` [Ex. 5] ([dY][2Thi][Iva]NC[Hyp][dR]G-NH2; linker N-5 via X1), the “(FAD)in (intranasal absorption)” value in data set [5] is reported as 17%. The “(FAD)V (gastrointestinal absorption)” value in data set [6] amounted to 1.4%.
For `CSCC[C@@H]1NC(=O)[C@@H](Cc2cccs2)NC(=O)CCCSC[C@@H](C(=O)N2C[C@H](O)C[C@H]2C(=O)N[C@H](CCCNC(=N)N)C(=O)NCC(N)=O)NC(=O)[C@H](CC(N)=O)NC(=O)[C@H](C(C)C)NC1=O` [Ex. 6] ([d2Thi]MVNC[Hyp][dR]G-NH2; linker N-5 via X1), in that order: 22% and 1.6%.
